Source: patent US10899769B2, “Imidazopiperazinone inhibitors of transcription activating proteins” (Board of Regents, The University of Texas System, priority 2018, dated 2021)
pIC50: −log10 of the molar value.

How the values were obtained:
BRD4(49-170) bromodomain = BRD4(49-170) bromodomain (Homo sapiens (Human), UniProt O60885); assay: BRD4 AlphaScreen Assay; settings: binding to biotin-H4(1-21) Ac-K5/8/12/16
Protocol: (§1) Specific binding of the CBP or BRD4 bromodomain to the acetylated peptide derived from the H4 histone substrate (tetra acetylated H4(1-21) Ac-K5/8/12/16) was measured in absence or presence of inhibitors. The GST tagged bromodomains of CBP (1081-1197) and BRD4 (49-170) were obtained from BPS Bioscience and binding to the biotinylated H4(1-21) Ac-K5/8/12/16 (AnaSpec. 64989) was assessed via AlphaScreen technology (Perkin Elmer).
(§2) 5 nM GST-CBP(1081-1197) and 20 nM biotin-H4(1-21) Ac-K5/8/12/16 (AnaSpec. 64989) were incubated with varying concentrations of CBP inhibitors in 15 μL of buffer containing 50 mM HEPES 7.5, […], 1 mM TCEP, and 0.003% Tween-20. After 30 minutes incubation at room temperature, 15 μL of detection buffer (BPS Bio. 33006) containing 7 μg/mL of Glutathione AlphaLisa acceptor beads (Perkin Elmer AL109) and 14 μg/mL of Streptavidin donor beads (Perkin Elmer 676002) was then added to the previous mixture. The reaction was incubated for an additional 2 hours at room temperature, and the AlphaScreen signal was quantified using the Envision Multilabel plate reader. As negative control, GST-CBP(1081-1197) was incubated with the non-acetylated biotin-H4(1-21) peptide(AnaSpec. 62555) and in presence of 0.25% of final DMSO concentration.
(§3) the binding of 2.5 nM of BRD4(49-170) to 10 nM biotin-H4(1-21) Ac-K5/8/12/16 (AnaSpec. 64989) was assessed following the same procedure described for the CBP assay. The standard dose response curves were fitted by Genedata Screener software using the variable-slope model: Signal=Signalnegative control+(SignalDMSO control−Signalnegative control)/(1+(IC50/Dose)^Hill slope).
(§4) Only Signal and Dose in the equation were treated as know values.

[1] = target: GST-CBP(1081-1197) bromodomain (Homo sapiens (Human), UniProt Q92793); assay: CBP AlphaScreen Assay; settings: binding to biotin-H4(1-21) Ac-K5/8/12/16
Protocol: as §1, §2, §3, §4

Chain of GST-CBP(1081-1197) bromodomain (Q92793 1081-1197): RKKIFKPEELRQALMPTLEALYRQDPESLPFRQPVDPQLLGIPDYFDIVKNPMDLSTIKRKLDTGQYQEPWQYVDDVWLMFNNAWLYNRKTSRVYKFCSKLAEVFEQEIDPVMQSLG

## Cc1cn(-c2cc3ccc(F)c(-c4nc(C5CCOCC5)n5c4CN(C)C(=O)C5C)c3cn2)cn1 (single isomer, unassigned) [Example 33a, 1-(7-fluoro-3-(4-methyl-1H-imidazol-1-yl)isoquinolin-8-yl)-5,7-dimethyl-3-(tetrahydro-2H-pyran-4-yl)-7,8-dihydroimidazo[1,5-a]pyrazin-6(5H)-one]
BRD4(49-170) bromodomain
  pIC50: ≤ 4.60
[1]
  pIC50: 5.79

## CC1C(=O)N(C)Cc2c(N3CCCc4cc(-c5cnn(C)c5)c(C(F)F)cc43)nc(C3CC3)n21 (centres unmarked) [Example 49, 3-cyclopropyl-1-(7-(difluoromethyl)-6-(1-methyl-1H-pyrazol-4-yl)-3,4-dihydroquinolin-1(2H)-yl)-5,7-dimethyl-7,8-dihydroimidazo[1,5-a] pyrazin-6(5H)-one]
BRD4(49-170) bromodomain
  pIC50: 6.48
[1]
  pIC50: 9.00

## Cc1cn(-c2cc3ccc(F)c(-c4nc(C5CCOCC5)n5c4CN(C)C(=O)C5C)c3cn2)cn1 (single isomer, unassigned) [Example 33b, 1-(7-fluoro-3-(4-methyl-1H-imidazol-1-yl)isoquinolin-8-yl)-5,7-dimethyl-3-(tetrahydro-2H-pyran-4-yl)-7,8-dihydroimidazo[1,5-a]pyrazin-6(5H)-one]
BRD4(49-170) bromodomain
  pIC50: 5.67
[1]
  pIC50: 8.22

## Cc1ncc(-c2cc3ccc(F)c(-c4nc(C5CCOCC5)n5c4CN(C)C(=O)C5C)c3cn2)s1 (single isomer, unassigned) [Example 37a, 1-(7-Fluoro-3-(2-methylthiazol-5-yl)isoquinolin-8-yl)-5,7-dimethyl-3-(tetrahydro-2H-pyran-4-yl)-7,8-dihydroimidazo[1,5-a]pyrazin-6(5H)-one]
BRD4(49-170) bromodomain
  pIC50: 6.67
[1]
  pIC50: 9.00

## CC1C(=O)N(C)Cc2c(-c3c(F)ccc4nc(-c5cnn(C)c5)c(C(F)F)cc34)nc(C3CCOCC3)n21 (single isomer, unassigned) [Example 36b, 1-(3-(Difluoromethyl)-6-fluoro-2-(1-methyl-1H-pyrazol-4-yl)quinolin-5-yl)-5,7-dimethyl-3-(tetrahydro-2H-pyran-4-yl)-7,8-dihydroimidazo[1,5-a]pyrazin-6(5H)-one]
BRD4(49-170) bromodomain
  pIC50: ≤ 4.60
[1]
  pIC50: 6.84

## Cc1cnn(-c2cc3cccc(-c4nc(C5CC5)n5c4CN(C)C(=O)C5C)c3cn2)c1 (centres unmarked) [Example 14, 3-Cyclopropyl-5,7-dimethyl-1-(3-(4-methyl-1H-pyrazol-1-yl)isoquinolin-8-yl)-7,8-dihydroimidazo[1,5-a]pyrazin-6(5H)-one]
BRD4(49-170) bromodomain
  pIC50: 6.36
[1]
  pIC50: 8.52

## CC1C(=O)N(C)Cc2c(-c3cccc4nc(-c5cnn(C)c5)c(C(F)F)cc34)nc(C3CNC3)n21 (centres unmarked) [Example 18, 3-(Azetidin-3-yl)-1-(3-(difluoromethyl)-2-(1-methyl-1H-pyrazol-4-yl)quinolin-5-yl)-5,7-dimethyl-7,8-dihydroimidazo[1,5-a]pyrazin-6(5H)-one]
BRD4(49-170) bromodomain
  pIC50: 4.76
[1]
  pIC50: 7.30

## CC1C(=O)N(C)Cc2c(-c3cccc4nc(-c5cnn(C)c5)c(C#N)cc34)nc(C3CCOCC3)n21 (single isomer, unassigned) [Example 8a, 5-(5,7-dimethyl-6-oxo-3-(tetrahydro-2H-pyran-4-yl)-5,6,7,8-tetrahydroimidazo[1,5-a]pyrazin-1-yl)-2-(1-methyl-1H-pyrazol-4-yl)quinoline-3-carbonitrile]
BRD4(49-170) bromodomain
  pIC50: ≤ 4.60
[1]
  pIC50: 6.29

## Cc1cn(-c2cc3cccc(-c4nc(C5CC5)n5c4CN(C)C(=O)C5C)c3cn2)nc1C (centres unmarked) [Example 72, 3-cyclopropyl-1-(3-(3,4-dimethyl-1H-pyrazol-1-yl)isoquinolin-8-yl)-5,7-dimethyl-7,8-dihydroimidazo[1,5-a] pyrazin-6(5H)-one]
BRD4(49-170) bromodomain
  pIC50: 6.53
[1]
  pIC50: 8.70

## CN1Cc2c(-c3cccc4nc(-c5cnn(C)c5)c(C(F)F)cc34)nc(C3CCOCC3)n2C(F)C1=O (centres unmarked) [Example 27, 1-(3-(Difluoromethyl)-2-(1-methyl-1H-pyrazol-4-yl)quinolin-5-yl)-5-fluoro-7-methyl-3-(tetrahydro-2H-pyran-4-yl)-7,8-dihydroimidazo[1,5-a]pyrazin-6(5H)-one]
BRD4(49-170) bromodomain
  pIC50: 5.05
[1]
  pIC50: 7.37

## Cn1cc(-c2cc3cccc(-c4nc(C5CC5)n5c4CN(CCF)C(=O)C5)c3cn2)cn1 [Example 7, 3-Cyclopropyl-7-(2-fluoroethyl)-1-(3-(1-methyl-1H-pyrazol-4-yl)isoquinolin-8-yl)-7,8-dihydroimidazo[1,5-a]pyrazin-6(5H)-one]
BRD4(49-170) bromodomain
  pIC50: 5.30
[1]
  pIC50: 7.72

## Cc1cn(-c2nc3cccc(-c4nc(C5CC5)n5c4CN(C)C(=O)C5C)c3cc2C(F)F)nn1 (centres unmarked) [Example 12, 3-cyclopropyl-1-(3-(difluoromethyl)-2-(4-methyl-1H-1,2,3-triazol-1-yl)quinolin-5-yl)-5,7-dimethyl-7,8-dihydroimidazo[1,5-a]pyrazin-6(5H)-one]
BRD4(49-170) bromodomain
  pIC50: 6.89
[1]
  pIC50: 8.52

## CN1Cc2c(-c3ccc4c(c3)c(-c3cnn(C)c3)nn4C)nc(C3CC3)n2CC1=O [Example 107, 3-cyclopropyl-7-methyl-1-(1-methyl-3-(1-methyl-1H-pyrazol-4-yl)-1H-indazol-5-yl)-7,8-dihydroimidazo [1,5-a] pyrazin-6(5H)-one]
BRD4(49-170) bromodomain
  pIC50: 5.17
[1]
  pIC50: 7.54

## CN1Cc2c(-c3cccc4nc(-c5cnn(C)c5)c(C(F)F)cc34)nc(C3CCOCC3)n2CC1=O [Example 93, 1-(3-(difluoromethyl)-2-(1-methyl-1H-pyrazol-4-yl)quinolin-5-yl)-7-methyl-3-(tetrahydro-2H-pyran-4-yl)-7,8-dihydroimidazo [1,5-a] pyrazin-6(5H)-one]
BRD4(49-170) bromodomain
  pIC50: 4.60
[1]
  pIC50: 6.45

## C[C@H]1C(=O)N(C)Cc2c(-c3cccc4nc(-c5cnn(C)c5)c(C(F)F)cc34)nc(C3CC3)n21 [Example 110a, (S)-3-cyclopropyl-1-(3 (difluoromethyl)-2-(1-methyl-1H-pyrazol-4-yl)quinolin-5-yl)-5,7-dimethyl-7,8-dihydroimidazo[1,5-a] pyrazin-6(5H)-one]
BRD4(49-170) bromodomain
  pIC50: 5.03
[1]
  pIC50: 6.34

## CC1C(=O)N(C)Cc2c(-c3cccc4nc(-c5cnn(C)c5)c(C(F)F)cc34)nc(C3CCNCC3)n21 (centres unmarked) [Example 75, 1-(3-(difluoromethyl)-2-(1-methyl-1H-pyrazol-4-yl)quinolin-5-yl)-5,7-dimethyl-3-(piperidin-4-yl)-7,8-dihydroimidazo[1,5-a] pyrazin-6(5H)-one]
BRD4(49-170) bromodomain
  pIC50: 4.92
[1]
  pIC50: 6.76

## C[C@@H]1C(=O)N(C)Cc2c(-c3cccc4nc(-c5cnn(C)c5)c(C(F)F)cc34)nc(C3CC3)n21 [Example 110b, (R)-3-cyclopropyl-1-(3 (difluoromethyl)-2-(1-methyl-1H-pyrazol-4-yl)quinolin-5-yl)-5,7-dimethyl-7,8-dihydroimidazo[1,5-a] pyrazin-6(5H)-one]
BRD4(49-170) bromodomain
  pIC50: 6.39
[1]
  pIC50: 9.00

## Cc1nn(C)cc1-c1cc2ccc(F)c(-c3nc(C4CCOCC4)n4c3CN(C)C(=O)C4)c2cn1 [Example 97, 1-(3-(1,3-dimethyl-1H-pyrazol-4-yl)-7-fluoroisoquinolin-8-yl)-7-methyl-3-(tetrahydro-2H-pyran-4-yl)-7,8-dihydroimidazo[1,5-a] pyrazin-6(5H)-one]
BRD4(49-170) bromodomain
  pIC50: 4.60
[1]
  pIC50: 6.49

## Cc1nn(C)cc1-c1cc2cccc(-c3nc(C4CCOCC4)n4c3CN(C)C(=O)C4)c2cn1 [Example 96, 1-(3-(1,3-dimethyl-1H-pyrazol-4-yl)isoquinolin-8-yl)-7-methyl-3-(tetrahydro-2H-pyran-4-yl)-7,8-dihydroimidazo[1,5-a] pyrazin-6(5H)-one]
BRD4(49-170) bromodomain
  pIC50: 4.90
[1]
  pIC50: 6.74

## CC1C(=O)N(C)Cc2c(-c3cccc4cc(-c5noc(=O)[nH]5)ncc34)nc(C3CC3)n21 (single isomer, unassigned) [Example 44a, 3-(8-(3-Cyclopropyl-5,7-dimethyl-6-oxo-5,6,7,8-tetrahydroimidazo[1,5-a]pyrazin-1-yl)isoquinolin-3-yl)-1,2,4-oxadiazol-5(4H)-one]
BRD4(49-170) bromodomain
  pIC50: < 4.60
[1]
  pIC50: 7.17

## CC1C(=O)N(C)Cc2c(-c3cccc4cc(-c5ccn(C)n5)ncc34)nc(C3CC3)n21 (stereo not drawn) [Example 62, 3-cyclopropyl-5,7-dimethyl-1-(3-(l-methyl-1H-pyrazol-3-yl)isoquinolin-8-yl)-7,8-dihydroimidazo[1,5-a] pyrazin-6(5H)-one]
BRD4(49-170) bromodomain
  pIC50: 6.79
[1]
  pIC50: 8.70

## CC1C(=O)N(C)Cc2c(-c3ccc4c(c3)c(-c3cnn(C)c3)nn4C)nc(C3CCOCC3)n21 (centres unmarked) [Example 40, 5,7-Dimethyl-1-(1-methyl-3-(1-methyl-1H-pyrazol-4-yl)-1H-indazol-5-yl)-3-(tetrahydro-2H-pyran-4-yl)-7,8-dihydroimidazo[1,5-a]pyrazin-6(5H)-one]
BRD4(49-170) bromodomain
  pIC50: 5.98
[1]
  pIC50: 8.05
